Laboratory results from ChEMBL document CHEMBL1129284, “N-methyl-D-aspartic acid receptor agonists: resolution, absolute stereochemistry, and pharmacology of the enantiomers of 2-amino-2-(3-hydroxy-5-methyl-4-isoxazolyl)acetic acid” (J Med Chem, 1996).

Experiments:
[1] = molecular target: Glutamate receptor ionotropic, AMPA (Rattus norvegicus, UniProt P19490+P19491+P19492+P19493); assay: Inhibitory activity against Ionotropic glutamate receptor AMPA using [3H]AMPA as radioligand; type: protein-complex assay
[2] = molecular target: Glutamate receptor ionotropic, kainate; assay: Inhibitory activity against Ionotropic glutamate receptor kainate using [3H]-kainic acid as radioligand; type: protein-complex assay
[3] = species: Rattus norvegicus; assay: Effective dose against rat cortical slice cells using Electrophysiological experiment.; type: functional; details: read-out: ED50 (the source's name)
[4] = molecular target: Glutamate NMDA receptor; assay: Inhibitory activity against N-methyl-D-aspartate glutamate receptor using [3H]CPP as radioligand; type: protein-complex assay

SMILES | IC50 [1] | IC50 [2] | EC50 [3] | IC50 [4]
Cc1onc(O)c1[C@@H](N)C(=O)O | 72 µM | > 100 µM | 7.3 µM | 3.7 µM
Cc1onc(O)c1C[C@H](N)C(=O)O [(S)-AMPA] | – | – | 580 µM | –
CN[C@H](CC(=O)O)C(=O)O [N-METHYL-D-ASPARTIC ACID (NMDA)] | > 100 µM | > 100 µM | 15 µM | 35 µM
Cc1o[nH]c(=O)c1C(N)C(=O)O (stereo not given) | > 100 µM | > 100 µM | 12 µM | –
Cc1onc(O)c1[C@H](N)C(=O)O | > 100 µM | > 100 µM | 75 µM | 61 µM
NC(C(=O)O)c1cc(=O)[nH]o1 (stereo not given) | 76 µM | > 100 µM | 3.8 µM | > 100 µM
